The record followed here is patent publication US20230203043A1, “NOVEL IMIDAZOPYRAZINE DERIVATIVES” (Hoffmann-La Roche Inc., priority 2020, published 2023).

As a reminder, the IC90 is the concentration needed for an effect of 90%.

Molecules are shown by their SMILES. Where a name gives a salt, the structure may show the parent alone.

For the first assay, the system named is Acinetobacter baumannii ATCC17961. The assay is described as follows: Antimicrobial susceptibility testing: 90% growth inhibitory concentration (IC90) determination in Iso-Sensitest broth, OD600 growth. It counts as cell-based. To be noted: Acinetobacter baumannii, ATCC17961, 16 h, read-out: A. baumannii ATCC 17961 IC90 (uM), strain ATCC 17961, OD600 growth over 16 h. Summed up:
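Serial twofold dilution, 10 points, e.g. 50–0.097 μM final; ~5×10^(5) CFU/ml; 35±2° C, 16 h; kinetic OD600 every 20 min; IC90 from log-phase inhibition.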
`Cc1cc(Nc2nccn3c(-c4cn(C)nc4C(F)(F)F)cnc23)ccc1C(=O)NCCNC(=O)[C@@H]1C[C@@H](O)CN1` [Example 456, formic acid; (2S,4R)-4-hydroxy-N-[2-[[2-methyl-4-[[3-[1-methyl-3-(trifluoromethyl)pyrazol-4-yl]imidazo[1,2-a]pyrazin-8-yl]amino]benzoyl]amino]ethyl]pyrrolidine-2-carboxamide]: the 90% effect concentration (IC90) was determined as 2.74 µM.

Regarding `N#CCn1cc(-c2cnc3c(Nc4ccc(C(=O)N5CCN(C(=O)C6CCNCC6)CC5)c(Cl)c4)nccn23)c(C(F)(F)F)n1` [Example 366, 2-[4-[8-[3-chloro-4-[4-(piperidine-4-carbonyl)piperazine-1-carbonyl]anilino]imidazo[1,2-a]pyrazin-3-yl]-3-(trifluoromethyl)pyrazol-1-yl]acetonitrile formate], the IC90 amounted to 0.296 µM.

On to `NCCCNC(=O)CN1CCN(C(=O)c2ccc(Nc3nccn4c(-c5cn(CC(F)F)nc5C(F)(F)F)cnc34)cc2Cl)CC1` [Example 606, N-(3-aminopropyl)-2-(4-(2-chloro-4-((3-(1-(2,2-difluoroethyl)-3-(trifluoromethyl)-1H-pyrazol-4-yl)imidazo[1,2-a]pyrazin-8-yl)amino)benzoyl)piperazin-1-yl)acetamide formate], for which the concentration for an effect of 90% (IC90) was 0.303 µM.

On to `Cc1cc(Nc2nccn3c(-c4cn(CC#N)nc4C(F)(F)F)cnc23)ccc1C(=O)NCC(=O)N[C@@H]1CCNC1` [Example 750, 4-[[3-[1-(cyanomethyl)-3-(trifluoromethyl)pyrazol-4-yl]imidazo[1,2-a]pyrazin-8-yl]amino]-2-methyl-N-[2-oxo-2-[[(3R)-pyrrolidin-3-yl]amino]ethyl]benzamide formate], for which the IC90 was 0.625 µM.

Regarding `Cc1cc(Nc2nccn3c(-c4c[nH]nc4C(F)(F)F)cnc23)ccc1C(=O)N1CCN(C(=O)NCCN)CC1` [Example 428, N-(2-aminoethyl)-4-[2-methyl-4-[[3-[3-(trifluoromethyl)-1H-pyrazol-4-yl]imidazo[1,2-a]pyrazin-8-yl]amino]benzoyl]piperazine-1-carboxamide formate], the concentration for an effect of 90% (IC90) was 0.465 µM.

With `C[C@@H](NC(=O)c1ccc(Nc2nccn3c(-c4c[nH]nc4C(F)(F)F)cnc23)cc1Cl)C(=O)N1CC[C@@H](N)C1` [Example 97, N-[(2R)-1-[(3R)-3-aminopyrrolidin-1-yl]-1-oxopropan-2-yl]-2-chloro-4-[[3-[3-(trifluoromethyl)-1H-pyrazol-4-yl]imidazo[1,2-a]pyrazin-8-yl]amino]benzamide formate], the IC90 stood at 1.7 µM.

As for `CCc1cc(Nc2nccn3c(-c4c[nH]nc4C(F)(F)F)cnc23)ccc1C(=O)NCC(=O)N1CCC(N)CC1` [Example 756, N-[2-(4-amino-1-piperidyl)-2-oxo-ethyl]-2-ethyl-4-[[3-[3-(trifluoromethyl)-1H-pyrazol-4-yl]imidazo[1,2-a]pyrazin-8-yl]amino]benzamide formate], the IC90 is 0.679 µM.

`O=C(NCCNC(=O)[C@@H]1C[C@@H](O)CN1)c1ccc(Nc2nccn3c(-c4c[nH]nc4C(F)(F)F)cnc23)cc1Cl` [Example 433, (2S,4R)-N-[2-[[2-chloro-4-[[3-[3-(trifluoromethyl)-1H-pyrazol-4-yl]imidazo[1,2-a]pyrazin-8-yl]amino]benzoyl]amino]ethyl]-4-hydroxypyrrolidine-2-carboxamide formate]: the concentration for an effect of 90% (IC90) is 2.66 µM.

The assay is the same for the next values; noted with them: Acinetobacter baumannii, ATCC17961, 16 h, strain ATCC 17961, OD600 growth over 16 h, read-out: A. baumannii ATCC 17961 IC90.
`N#CCn1cc(-c2cnc3c(Nc4ccc(C(=O)N5CC6(CN(C(=O)CN)C6)C5)c(Cl)c4)nccn23)c(C(F)(F)F)n1` [Example 659, 2-(4-(8-((3-chloro-4-(6-glycyl-2,6-diazaspiro[3.3]heptane-2-carbonyl)phenyl)amino)imidazo[1,2-a]pyrazin-3-yl)-3-(trifluoromethyl)-1H-pyrazol-1-yl)acetonitrile]: the IC90 turned out to be 0.27 µM.

With `NCCCNC(=O)CNCCNC(=O)c1ccc(Nc2nccn3c(-c4cn(CC(F)F)nc4C(F)(F)F)cnc23)cc1Cl` [Example 824, N-(2-((2-((3-aminopropyl)amino)-2-oxoethyl)amino)ethyl)-2-chloro-4-(3-(1-2,2-difluoroethyl)-3-(trifluoromethyl)-1H-pyrazol-4-yl)imidazo[1,2-a]pyrazin-8-yl)amino) benzamide formate], the 90% effect concentration (IC90) came out at 0.12 µM.

For the compound `O=C(NC1CCN(C(=O)c2ccc(Nc3nccn4c(-c5c[nH]nc5C(F)(F)F)cnc34)cc2Cl)CC1)C1CCNCC1` [Example 157, N-[1-[2-chloro-4-[[3-[3-(trifluoromethyl)-1H-pyrazol-4-yl]imidazo[1,2-a]pyrazin-8-yl]amino]benzoyl]piperidin-4-yl]piperidine-4-carboxamide], the IC90 came to 0.969 µM.

For `N#CCn1cc(-c2cnc3c(Nc4ccc(C(=O)NCCOCCN)c(F)c4)nccn23)c(C(F)(F)F)n1` [Example 810, N-(2-(2-aminoethoxy)ethyl)-4-((3-(1-(cyanomethyl)-3-(trifluoromethyl)-1H-pyrazol-4-yl)imrdazo[1,2-a]pyrazin-8-yl)amino)-2-fluorobenzamide hydrochloride], the 90% effect concentration (IC90) came to 0.25 µM.

Consider `N#CCn1cc(-c2cnc3c(Nc4ccc(C(=O)N5CCC(NC(=O)C6CCNCC6)CC5)c(Cl)c4)nccn23)c(C(F)(F)F)n1` [Example 142, N-[1-[2-chloro-4-[[3-[1-(cyanomethyl)-3-(trifluoromethyl)pyrazol-4-yl]imidazo[1,2-a]pyrazin-8-yl]amino]benzoyl]piperidin-4-yl]piperidine-4-carboxamide], for which the IC90 came out at 0.554 µM.

For `CCc1cc(Nc2nccn3c(-c4cn(CC(F)F)nc4C(F)F)cnc23)ccc1C(=O)N1CCN(C(=O)C2CCNCC2)CC1` [Example 742, (4-(4-((3-(1-(2,2-difluoroethyl)-3-(difluoromethyl)-1H-pyrazol-4-yl)imidazo[1,2-a]pyrazin-8-yl)amino)-2-ethylbenzoyl)piperazin-1-yl)(piperidin-4-yl) methanone], the IC90 is 0.53 µM.

Turning to `CCc1cc(Nc2nccn3c(-c4cn(CC#N)nc4C(F)(F)F)cnc23)ccc1C(=O)NCCNC(=O)[C@H]1CC[C@@H](N)C1` [Example 496, N-(2-((1S,3R)-3-aminocyclopentane-1-carboxamido)ethyl)-4-((3-(1-(cyanomethyl)-3-(trifluoromethyl)-1H-pyrazol-4-yl)imidazo[1,2-a]pyrazin-8-yl)amino)-2-ethylbenzamide formate], the IC90 was 0.173 µM.

For the compound `CCc1cc(Nc2nccn3c(-c4cn(Cc5csc(C)n5)nc4C(F)(F)F)cnc23)ccc1C(=O)NCCCNCCCCNCCCN` [Example 82, N-[3-[4-(3-aminopropylamino)butylamino]propyl]-2-ethyl-4-[[3-[1-[(2-methyl-1,3-thiazol-4-yl)methyl]-3-(trifluoromethyl)pyrazol-4-yl]imidazo[1,2-a]pyrazin-8 yl]amino]benzamide hydrochloride], the IC90 came to 1.15 µM.

`CNC(=O)c1ccc(Nc2nccn3c(-c4c[nH]nc4C(F)(F)F)cnc23)cc1Cl` [Example 388, 2-chloro-N-methyl-4-[[3-[3-(trifluoromethyl)-1H-pyrazol-4-yl]imidazo[1,2-a]pyrazin-8-yl]amino]benzamide]: the IC90 amounted to 0.337 µM.

`CCc1cc(Nc2nccn3c(-c4cn(CCNC)nc4C(F)(F)F)cnc23)ccc1C(=O)NC` [Example 298, 2-ethyl-N-methyl-4-[[3-[1-[2-(methylamino)ethyl]-3-(trifluoromethyl)pyrazol-4-yl]imidazo[1,2-a]pyrazin-8-yl]amino]benzamide]: the IC90 is 1.32 µM.
